Test results reported in US20240009266A1, “PHARMACEUTICAL COMBINATIONS COMPRISING A PEPTIDE CXCR4 INHIBITOR AND A TAXANE FOR TREATING CANCER” (POLYPHOR AG, priority 2020, published 2024).

How the values were obtained:
[1] = tested on: other potential target receptors; test: In vitro receptor binding studies, other receptors
[2] = tested on: breast cancer PDX Ma15169; conditions: for tumor growth inhibition / therapeutic effect (in words): Ma15169 PDX, humanized NOG-EXL mice, treatment day 154-182; for T/C value (treated-to-control tumor volume) at the last day of the study: day 183, Paclitaxel 10 mg/kg i.v. twice weekly, treatment from day 154, 29 days; for response rating according to RECIST criteria: from T/C at day 183 (last day of the study)
Experimental: The study was designed to determine the response of the breast cancer PDX Ma15169 to treatment with Paclitaxel single agent, Balixafortide single agent and the combination of both in humanized NOG-EXL mice. Humanized NOG-EXL mice bearing the breast cancer PDX Ma15169 were treated with Paclitaxel and Balixafortide according to Table 1. Ma15169 is a patient derived xenograft (PDX) that was from a patient with an invasive ductal carcinoma (ypT1a ypN1a R0 G3 L1 V1). The patient tumour was ER/PR as well as Her-2 negative. The tumour material was expanded in 9 donor mice (NOG, Taconic; https://www.taconic.com/mouse-model/ciea-nog-mouse) and fragments of about 10 mm3 were each implanted subcutaneously into the flank of 50 humanized NOG-EXL mice; at this time, the passage number of Ma15169 was #4.
Female NOG-EXL mice with an age of about 4 weeks were used for the constitution of human immune cells. 24 hours before CD34+ cell inoculation mice were irradiated with 1Gy. Human CD34+ cells were isolated from fresh cord blood within the laboratories of EPO (Experimental Pharmacology & Oncology Berlin-Buch GmbH, Berlin-Buch, Germany) and preserved in liquid nitrogen until use. For the study MV16883 a pool of 5 different donors (CB AG 101, CB AG 97, CB KR 104, CB AG 106, CB AG 107) prepared. After thawing the cells were washed with PBS, pooled and washed again followed by Trypan blue staining and cell counting using Neubauer chamber. A total of 5×10^4 vital cells were resuspended in 200 μl PBS and injected intravenously into the tail vain of all mice.
Determination of human immune cells by FACS was performed at days 46, 84 and 115 after cell inoculation (leucocytes CD45+, B cells CD19+, T cells CD3+, NK cells CD56+/CD16+ and monocytes CD14+; Human Immunophenotyping 8-color-Kit (Miltenyi)). The mice were weighed weekly and monitored for general health two times weekly.
The PDX Ma15169 is maintained by EPO (Experimental Pharmacology & Oncology Berlin-Buch GmbH, Berlin-Buch, Germany) as in vivo passage; the passage number for this study was #4. Donor mice (female NOG; Taconic) with tumors of about 1 cm3 were used for the preparation of this study MV16883.
After removal of the tumor tissue from donor mice, the tumors were cut into fragments (2-3 mm diameter—approximately 10 mm3) and placed in cooled RPMI 1640 culture medium until s.c. implantation within 30 minutes. The humanized NOG-EXL mice were anaesthetized with Etomidate and received a small incision in the skin of the left flank. The tumor fragments (one fragment/mouse) were implanted with tweezers and the incision closed with a suture clip (#310417, Covetrus GmbH). The clips were removed after seven days and mice controlled two times weekly by means of palpation. The implantation of tumor fragments was performed 122 days after the inoculation of CD34+ cells.
Tumor bearing mice were stratified into 4 treatment groups according to their tumor volumes at day 154 post CD34+ cell inoculation (32 days after tumor implantation). […] During stratification the animals were individually marked by earmarks.
Paclitaxel (Taxomedac™ comprising paclictaxel, citric acid, ethanol and PEG (30-50) castor oil) was given i.v. at a dose of 10 mg/kg twice weekly. Balixafortide was given s.c. at a dose of 20 mg/kg once daily for the first 5 days and twice daily for 5 days followed by treatment breaks of 2 days until the end of treatment period (FIG. 1). Total treatment duration was 29 days. Successful engraftment of human CD34+ cells was checked by flow cytometry (FACS).
Changes in the human immune cell population in blood were followed-up at the end of the study by FACS analysis.

human CXCR4 receptor = human CXCR4 receptor (Homo sapiens, UniProt P61073); test: In vitro receptor binding studies, human CXCR4 receptor
Chain of human CXCR4 receptor (P61073 whole entry): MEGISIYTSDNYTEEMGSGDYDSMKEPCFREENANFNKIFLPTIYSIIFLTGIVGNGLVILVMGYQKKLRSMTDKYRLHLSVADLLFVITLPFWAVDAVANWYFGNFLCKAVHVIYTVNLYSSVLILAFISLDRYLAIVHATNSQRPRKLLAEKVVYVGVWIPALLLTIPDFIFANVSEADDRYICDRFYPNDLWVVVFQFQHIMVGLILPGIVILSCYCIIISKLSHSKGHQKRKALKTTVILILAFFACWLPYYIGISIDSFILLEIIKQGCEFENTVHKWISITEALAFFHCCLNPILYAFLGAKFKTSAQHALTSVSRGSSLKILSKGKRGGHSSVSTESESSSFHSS

Cyclo(-Tyr-His-Ala-Cys-Ser-Ala-^DPro-Dab-Arg-Tyr-Cys-Tyr-Gln-Lys-^DPro-Pro-) having a disulfide bond between Cys^4 and Cys^11 [Balixafortide]
binding to other potential target receptors (in words) [1]: general lack of significant binding | tumor growth inhibition / therapeutic effect (in words) [2]: inhibited tumor growth marginally | T/C value (treated-to-control tumor volume) at the last day of the study ([2]; Balixafortide 20 mg/kg s.c.): 107% | optimum T/C value ([2]; found at day 168, Balixafortide 20 mg/kg s.c., p>0.05): 79% | response rating according to RECIST criteria [2]: progressive disease | affinity for the human CXCR4 receptor (in words) (human CXCR4 receptor): significant affinity

CC(=O)O[C@H]1C(=O)[C@@]2(C)[C@H]([C@H](OC(=O)c3ccccc3)[C@]3(O)C[C@H](OC(=O)[C@H](O)[C@@H](NC(=O)c4ccccc4)c4ccccc4)C(C)=C1C3(C)C)[C@]1(OC(C)=O)CO[C@@H]1C[C@@H]2O [Paclitaxel, reference compound]
tumor growth inhibition / therapeutic effect (in words) [2]: significant tumor growth inhibition | T/C value (treated-to-control tumor volume) at the last day of the study ([2]; Balixafortide 20 mg/kg s.c.): 42% | response rating according to RECIST criteria [2]: stable disease
